The source of these data is patent publication US20130263297A1, “METHODS OF TREATING CANCER” (Cedars-Sinai Medical Center, priority 2010, published 2013).

“Also recorded” adds a separate entry of the source.

Assay [1] deals with cMet in ARCaPE cells. Put plainly: cMet expression and phosphorylation (Western blot), ARCaPE. Format: cell-based, human.
Assay [2] concerns RANKL promoter in LNCaP and LNCaP-RANKL cells. Put plainly: RANKL promoter reporter assay, LNCaP model. Type of assay: cell-based, human.
The subject of assay [3] is RANKL promoter in ARCaPE, ARCaPM and ARCaPE-RANKL cells. Put plainly: RANKL promoter reporter assay, ARCaP model. Format: cell-based, human. An excerpt:
Because the inventors are interested in how RANKL is transcriptionally regulated, the inventors have constructed a 2.5 kb 5′ upstream region of RANKL promoter. The inventors used BAC clones (RP11-86N24) to amplify the promoter region of RANKL from human chromosome 13 contig. The whole promoter region (2.5 kb) was then cloned into pGL3 basic luciferase reporter vector. The inventors placed RANKL promoter reporter into ARCaPE,M, C4-2, and a positive cell line, SaOS-2 to examine the basic promoter activity. Then, the inventors stimulated the RANKL promoter by various growth factors, such as vitamin D3, PTH, and TGFβ.

For assay [4], the system named is ARCaPE and ARCaPM cells. Put plainly: EMT marker / RANKL expression by RT-PCR and Western blot and morphology, ARCaP model. Format: cell-based, human. The arrangement: N-cadherin expression in ARCaPE cells (Example 9) / E-cadherin expression in ARCaPE cells (Example 9) / Snail expression in ARCaPE cells (Example 9) / vimentin expression in ARCaPE cells (Example 9): dose or concentration left out as unconfirmed. The method, then:
4×10^5 ARCaP and PC3 cells were seeded into a 6-well plate and cultured for 48 hrs until they grow to 90% confluence. The RANKL siRNA (50 pmole) and siRNA control (50 pmole) and lipofetamine (2.5 ul) were mixed with 250 ul of OPTI-medium without any FBS, respectively and incubated at RT for 5 minutes. The DNA and lipofetamine were then mixed together and incubated for 20 minutes before adding to the cells in each well. The medium was changed to normal 5% T-medium after 6 h incubation. The cells were incubated at 37° C. for two days before harvesting.
Total of 30 ug of proteins per well from both ARCaPE and ARCaPM cells were run on a Tris-Bis 4-12% gradient polyacrylamide gel (Invitrogen) one and half hours at 150 Volts. The proteins on the gel were then transferred to PVDF membranes using Hoefer semi-dry system. The membranes were incubated with 5% skim milk in PBST (Blocking solution) for 20 min to block non-specific antibody labeling. The RANKL primary antibody was diluted with blocking solution (1:200 and 1:500) and incubated with the membrane for one hour at RT on a rocker or overnight at 4° C. The membrane was washed with PBST (PBS+0.01% TWEEN) three times for a minimum of 5 min each. Secondary rabbit anti-goat antibodies were incubated with the membrane for one hour at RT on a rocker. The membrane was again washed with PBST three times for 5 min each. Chemiluminescent substrate (Western Lightning) was evenly added across the top surface of the membrane, and the membrane was exposed to X-ray films for 30 seconds to 2 minutes depending on the strength of the signals and then developed according to the manufacturer's instructions.
For each reaction, a 50 μl PCR reaction mix containing 5 μl of 10×PCR buffer, 1.5 ul of 50 mM MgCl2, 1 ul of 10 mM dNTP, 1 ul of each forward and reverse primers (RANKL F: […] (SEQ ID NO:1) and RANKL R: […] (SEQ ID NO:2); GAPDH as the positive control), 3 ul cDNA, 37 ul double distilled water, and 0.5 μl of Taq polymerase (Invitrogen) was made. The reaction was first activated at 94° C. for 2 min and run for 36 cycles of 94° C. (30 sec-melting), 60° C. (30 sec-annealing), and 72° C. (60 sec-extension), and lastly incubated at 72° C. for 5 min to amplify the cDNA. A 1% gel electrophoresis was run with 5 μl of 100 by DNA ladder and 10 μl of amplified cDNA of each sample to check the size of the cDNA and also whether it was successfully synthesized under UV light. […]
ARCaPE or ARCaPM cells were seeded into 6-well plate and transiently transfected with flag-tagged RANKL or neo plasmid DNA under the regulation by CMV-promoter, or RANKL siRNA (Santa Cruz Biotechnology, Inc., Santa Cruz, Calif.) with an universal scramble siRNA which serves as the control (Invitrogen, Carlsbad, Calif.). After 48 h of transfection, cells were harvested for western blotting and RT-PCR analyses. For stable transfection, LNCaP cells were first transfected with either flag-tagged RANKL- or neo-control-plasmid cDNA (Sigma-Aldrich, St. Louis, Mo.) in a 6-well plate for 48 h, and the cells were trypsinized and seeded into a 15 cm dish. The cells contain the transfected vector were selected in 400 μg/ml of G418 until individual colonies that contain transfected construct were formed. LNCaP cell colonies expressing flag-tagged RANKL or neo plasmid were picked and the cells were amplified from a 48-well plate to a 10 cm dish in the presence of G418. Stable clones were maintained in 200 μg/ml of G418 and routinely checked for flag-RANKL expression by western blot analysis.
Total RNA from cells was isolated using RNeasy Mini Kit (Qiagen, Valencia, Calif.) according to manufacturer's instructions. […]

Assay [5] deals with LNCaP and LNCaP-RANKL cells. Put plainly: In vitro migration and invasion assays (transwell), LNCaP model. Type of assay: cell-based, human. The method, then:
(§1) Migration and invasion of cancer cells were examined in 24-well plates using either uncoated or collagen I- and growth factor reduced Matrigel (BD Biosciences, Bedford, Mass.)-coated transwells (8 μm pore size), respectively, as previously described. Cells were serum-starved in RPMI 1640 or T-medium (Invitrogen, Carlsbad, Calif.) overnight and dissociated in 10 mM EDTA/HEPES. The lifted cells were washed and counted, and 5×10^4 cells were seeded in 100 μl of serum-free RPMI 1640 or T-medium in the upper chamber of the transwells in the presence or absence of 1 μg/ml OPG and 400 μl of RPMI 1640 or T-medium supplemented with 5% FBS was placed in the lower chamber of the transwells. After 24 h (migration) and 48 h (invasion) of culturing at 37° C., the migrated and invaded cells were fixed with 10% formaldehyde, stained with 0.5% crystal violet, and the cells at the upper side of the membrane of the chamber were removed and quantified.

For assay [6], the system named is cMet transcriptional activity. Put plainly: cMet promoter reporter assay. Format: cell-based.
Assay [7] concerns ARCaPE, ARCaPM and ARCaPE-RANKL cells. Put plainly: In vitro migration and invasion assays (transwell), ARCaP model. Type of assay: cell-based, human. The method, then:
as §1

[8] abbreviates: recombinant RANKL 200 and 400, four days.

In the case of osteoprotegerin [OPG], in assay [1] (OPG (vs RANKL) or anti-HGF antibody (vs HGF) treatment), the “RANKL- or HGF-induced cMet expression and phosphorylation in ARCaPE cells” value is “abrogated”. Besides, in assay [2] (OPG treatment), the “increased RANKL promoter activity in LNCaP-RANKL cells” value is “attenuated”. Also, in assay [3] (OPG treatment), the “RANKL promoter activity in ARCaPM cells” value was “dampen” and the “increased RANKL promoter activity in ARCaPE-RANKL cells” value is “attenuated”. Also, the “RANKL expression in ARCaPM cells” value in assay [4] (1 ug/ml of OPG) is recorded as “down-regulated”. Also, the “Vimentin in ARCaPE cells (WB)” value in assay [4] (RANKL plus OPG) is on record as “significantly reduced”. In assay [4] (RANKL plus OPG compared to 300 ng/ml RANKL), the “N-cad and Vimentin expression in ARCaPE cells (RT-PCR)” value is recorded as “slightly decreased”. For the same molecule, in assay [4] (RANKL plus OPG compared to RANKL), the “E-cad expression in ARCaPE cells (RT-PCR, WB)” value is “restore”. In assay [4] (addition of OPG), the “RANKL-induced EMT and cadherin switch in ARCaPE cells” value is on record as “blocked; also recorded: abolished”; the “RANKL-induced RANKL expression in ARCaPE cells” value is reported as “attenuated”. Besides, the “EMT phenotype of ARCaPM cells (morphology, mesenchymal genes, cadherin switch)” value in assay [4] (exposure to OPG (1 μg/ml)) is “reversed”. Further, the “increased migration and invasion of LNCaP-RANKL cells” value in assay [5] (OPG treatment) is reported as “antagonized; also recorded: suppressed”. Further, in assay [5] (presence of OPG), the “RANKL-induced increase of migration and invasion of LNCaP cells” value is on record as “abrogated”. Further, in assay [6] (OPG treatment), the “RANKL up-regulated cMet transcriptional activity” value is recorded as “attenuated”. In addition, in assay [7] (OPG treatment), the “increased migration and invasion of ARCaPE-RANKL cells” value is listed as “suppressed”. Further, the “migration and invasion of ARCaPM cells” value in assay [7] (OPG treatment, 1 μg/ml) is listed as “antagonized; also recorded: decreased”. Besides, in assay [7] (presence of OPG), the “RANKL-induced increase of migration and invasion of ARCaPE cells” value is given as “abrogated”.

B1: RANKL: trimerized recombinant RANKL protein (rRANKL), receptor activator of NF-KB ligand (protein, UniProt O14788 69-317, looked up)
extracellular domain: YFRAQMDPNRISEDGTHCIYRILRLHENADFQDTTLESQDTKLIPDSCRRIKQAFQGAVQKELQHIVGSQHIRAEKAMVDGSWLDLAKRSKLEAQPFAHLTINATDIPSGSHKVSLSSWYHDRGWAKISNMTFSNGKLIVNQDGFYYLYANICFRHHETSGDLATEYLQLMVYVTKTSIKIPSSHTLMKGGSTKYWSGNSEFHFYSINVGGFFKLRSGEEISIEVSNPSLLDPDQDATYFGAFKVRDID
modifications: extracellular domain trimerized
B1: the “cMet expression and phosphorylated level of cMet in ARCaPE cells” value in assay [1] (exogeneous RANKL or HGF treatment) is on record as “significantly increased”. In addition, in assay [2] (RANKL treatment), the “RANKL promoter activity in LNCaP cells” value was “induction”. For the same molecule, in assay [3] (RANKL treatments), the “RANKL promoter activity in ARCaPE and ARCaPM cells” value is reported as “induced”. Also, in assay [4] (200 ng/ml recombinant RANKL), the “E-cadherin expression in ARCaPE cells” value is given as “down-regulated”; the “N-cadherin expression in ARCaPE cells” value is “up-regulated”; the “Snail, vimentin, and RANKL expression in ARCaPE cells” value was “up-regulation”. In assay [4] (200 ng/ml recombinant RANKL protein, 8-day period), the “cell morphology of ARCaPE cells” value was “gradually changed their morphology from cobble-stoned clusters to more dispersed and fibroblastic-like appearance”. For the same molecule, the “Vimentin in ARCaPE cells (WB)” value in assay [4] (RANKL alone) is “only slightly increased”. Further, the “RANKL expression at mRNA and protein levels in ARCaPE cells” value in assay [4] (RANKL treatment) was “up-regulated”. Also, in assay [4] (setting [8]), the “N-cadherin expression in ARCaPE cells (Example 9)” value is listed as “slightly increased”, the “Snail expression in ARCaPE cells (Example 9)” value is on record as “no effect” and the “vimentin expression in ARCaPE cells (Example 9)” value is given as “increases”. In addition, the “E-cadherin expression in ARCaPE cells (Example 9)” value in assay [4] (recombinant RANKL 200 and 400, four days, RNA and protein level) is listed as “decrease”. Also, in assay [5] (recombinant RANKL treatment), the “migration and invasion of LNCaP cells” value is recorded as “increased”. In addition, the cMet transcriptional activity result in assay [6] (RANKL treatment) was “up-regulated”. For the same molecule, in assay [7] (recombinant RANKL treatment), the “migration and invasion of ARCaPE cells” value is on record as “increased”.
